Data from patent publication US20020086885A1, “Pharmaceutical composition” (priority 1998, published 2002).
Counter-ions that a name gives are not always drawn.

What was measured:
[1] = tested on: obese, diabetic KKA^y mice; settings: cited from earlier work
[2] = tested on: noninsulin-dependent diabetic mellitus (NIDDM) patients; assay: Concomitant administration of pioglitazone hydrochloride and mazindol in NIDDM patients; type: in vivo, human
Text: Effects of concomitant administration of pioglitazone hydrochloride and mazindol in noninsulin-dependent diabetic mellitus (NIDDM) patients were studied.

obese rats = settings: given together with troglitazone; cited from earlier work

N=C(N)NCCC(=O)O [3-Guanidinopropionic acid]
weight gain in mice treated with pioglitazone hydrochloride [1]: antagonizes in a dose-dependent manner

CCc1ccc(CCOc2ccc(CC3SC(=O)NC3=O)cc2)nc1 (stereo not shown) [pioglitazone hydrochloride, 5-[4-[2-(5-ethyl-2-pyridyl)ethoxy]benzyl]-2,4-thiazolidinedione]
body weight increased by ([2]; NIDDM patients, pioglitazone hydrochloride alone 45 mg/day oral, 12±2 weeks, means±standard deviation of 50 samples): 0.72 ± 2.06 kg

C[C@H](Cc1ccc2c(c1)OC(C(=O)[O-])(C(=O)[O-])O2)NC[C@H](O)c1cccc(Cl)c1.[Na+].[Na+] [CL316243]
weight gain in brown adipose tissues caused by troglitazone (obese rats): completely inhibited

OC1(c2ccc(Cl)cc2)c2ccccc2C2=NCCN21 (stereo not shown) [mazindol]
body weight change ([2]; one NIDDM patient, mazindol 0.5 mg/day oral with placebo, 12 weeks, baseline 60.0 kg): 0.00 kg
